Read-outs that look alike come from different tables or passages of the source.
Tests used:
MDA-MB231 cells = experiment: Soft agar growth assay (Alamar Blue), MDA-MB231; assay type: cell-based; settings: Homo sapiens, MDA-MB-231, 264 h
Description: (§2) Aprepitant (Biorbit) and fosaprepitant (IVEMEND®, MSD) were dissolved at a concentration of 100 mM in 100% DMSO (aprepitant) or in 0.9% NaCl (fosaprepitant). Actinomycin D was used as reference compound.
(§3) Stock solutions were diluted covering the final concentration range between 0 and 200 μM. The appropriate solvent controls were performed in parallel.
(§4) Compounds dissolved in DMSO (aprepitant as well as Actinomycin D) were diluted in 8 semilog steps in DMSO to obtain a dilution series with the 1000 fold final concentration.
(§5) Fosaprepitant was diluted in 8 semilog steps in 0.9% NaCl to obtain a dilution series with the 1000 fold final concentration.
(§6) Cancer cells stemming from established cancer cell lines (A549, HCT116, MDA-MB231) were cultured in DMEM containing 10% FCS and Penicillin/Streptomycin.
(§7) For each cell line 96 well suspension cell culture plates were prepared. 100 μL of the soft agar bottom layer (0.6% final concentration in complete medium) was poured and left to solidify. […]
(§8) Next day, compounds were added into the inner wells of the plate. […] Finally, the assays were developed using Alamar Blue and upon 3-5 h of incubation at 37° C. fluorescence intensity was determined (excitation: 560 nm; emission: 590 nm). […]

MDA-MB-231 cells = experiment: Xenograft tumor model, preventive application, MDA-MB-231; settings: aprepitant 100 mg/kg p.o., fosaprepitant 60 mg/kg i.v., 1x daily from day -2
Description: (§9) The ability of fosaprepitant and aprepitant to prevent tumor formation in xenograft models for breast cancer, lung cancer and colon cancer was investigated.
(§10) Monolayer MDA-MB-231 cells, HCT-116 cells and A549 cells, respectively, were grown in DMEM+10% FCS. The cells were cultured in a humidified atmosphere of 90% air and 10% carbon dioxide at 37° C. Media was routinely changed every 3 days. Confluent cultures were split 1:3 to 1:3 every 3-4 days using Trypsin/EDTA and seeded at a density of approximately 3-4×10^6 cells/15 cm^2+25 mL medium.
(§11) Female BALB/c nude (CAnN.Cg-Foxn1^nu/Crl) Mice (Charles River GmbH, Sulzfeld, Germany) aged 4-5 weeks at delivery and weighing approximately 15-18 g were kept under optimum hygienic conditions, air-conditioned with 10-15 air changes per hour, and continually monitored environment with target ranges for temperature 22±3° C. and for relative humidity 30-70%, 12 hours artificial fluorescent light/12 hours dark. Maximum 4 animals were kept per individual ventilated cage (IVC) and fed with a diet consisting of M-Zucht (ssniff Spezialdiáten GmbH) and autoclaved community tab water.
(§12) After an acclimatization period of 4 days (day −2) application of fosaprepitant, aprepitant and vehicle was started: Fosaprepitant was administered intravenously (i.v.) once daily for 20 days, and aprepitant was administered per oral gavage (p.o.) once daily for 20 days. Fosaprepitant was dissolved in 0.9% NaCl and 0.9% NaCl was used analogous to fosaprepitant as control (vehicle 1). As aprepitant is not water-soluble, it was provided as a suspension of ground EMEND® tablets in OraPlus® (Paddock Laboratories, Minneapolis, USA; contains: purified water, microcrystalline cellulose, carboxymethylcellulose sodium, xanthan gum, flavouring, citric acid, sodium phosphate, simethicone, methylparaben, and potassium sorbate, pH 4.2) and OraPlus® was used analogous to aprepitant as control (vehicle 2).
(§13) In the following, animal weights were measured (balance: Mettler Toledo PB602-L). Primary tumor sizes were measured by callipering (manual calliper, OMC Fontana). Tumor sizes were calculated according to the formula W^2×L/2 (L=length and W=the perpendicular width of the tumor, L>W).
(§14) Animal behavior and welfare was observed daily and tumor growth was recorded every two days by calliper measurement over a period of 30 days.

HCT-116 cells = experiment: Xenograft tumor model, preventive application, HCT116; settings: aprepitant 100 mg/kg p.o., fosaprepitant 60 mg/kg i.v., 1x daily from day -2
Description: as §9, §10, §11, §12, §13, §14

A549 cells [1] = experiment: Soft agar growth assay (Alamar Blue), A549; assay type: cell-based; settings: Homo sapiens
Description: as §2, §3, §4, §5, §6, §7, §8

HCT116 cells = experiment: Soft agar growth assay (Alamar Blue), HCT116; assay type: cell-based; settings: Homo sapiens, HCT-116, 192 h
Description: as §2, §3, §4, §5, §6, §7, §8

[2] = system: MDA-MB-231 cells (triple negative tumor cells); experiment: Example 5: preventive treatment of xenografted nude mice (FIG. 4); assay type: in vivo; settings: MDA-MB-231 xenograft; fosaprepitant i.v. 60 mg/kg/d, aprepitant p.o. 100 mg/kg/d, once daily for 19 days from day -2
Description: (§1) After an acclimatization period, application of fosaprepitant, aprepitant and vehicle control was started (day −2): Fosaprepitant was administered intravenously (i.v.; 60 mg/kg/d) once daily for 19 days, and aprepitant was administered per oral gavage (p.o.; 100 mg/kg/d) once daily for 19 days. […] The tumor volume was measured and depicted as mm3 at the indicated time points.
as §1, with “FIG. 4: In vivo treatment of xenografted mice with fosaprepitant and aprepitant. After” for “After”

[3] = capsules; cited from earlier work
brain tumors = settings: background report; cited from earlier work
NK1 receptors = NK1 receptors (Homo sapiens, UniProt P25103); settings: versus other receptors such as serotonin, dopamine, corticosteroid; estimated; cited from earlier work
Sequence of NK1 receptors (P25103 whole entry): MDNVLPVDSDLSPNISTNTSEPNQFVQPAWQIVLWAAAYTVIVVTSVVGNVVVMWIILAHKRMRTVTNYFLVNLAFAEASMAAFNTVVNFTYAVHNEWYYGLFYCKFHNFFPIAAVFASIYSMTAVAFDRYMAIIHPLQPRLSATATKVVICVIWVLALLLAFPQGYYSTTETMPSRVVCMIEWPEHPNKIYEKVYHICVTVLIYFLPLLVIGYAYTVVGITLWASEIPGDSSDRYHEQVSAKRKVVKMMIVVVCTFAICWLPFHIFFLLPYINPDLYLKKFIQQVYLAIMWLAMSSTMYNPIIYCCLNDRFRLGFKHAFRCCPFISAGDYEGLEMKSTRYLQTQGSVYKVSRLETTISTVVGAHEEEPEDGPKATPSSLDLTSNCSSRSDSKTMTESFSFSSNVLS

[4] = cited from earlier work
A549 cells [5] = experiment: Xenograft tumor model, preventive application, A549; settings: aprepitant 100 mg/kg p.o., fosaprepitant 60 mg/kg i.v., 1x daily from day -2
Description: as §9, §10, §11, §12, §13, §14

[6] = MDA-MB-231, 10 days after tumor cell inoculation
[7] = MDA-MB-231, 20 days after tumor cell inoculation
[8] = MDA-MB-231, 30 days after tumor cell inoculation
[9] = HCT116, 10 days after tumor cell inoculation
[10] = HCT116, 20 days after tumor cell inoculation
[11] = HCT116, 30 days after tumor cell inoculation
[12] = A549, 10 days after tumor cell inoculation
[13] = A549, 20 days after tumor cell inoculation
[14] = A549, 30 days after tumor cell inoculation

IC50 (MDA-MB231 cells; MDA-MB231 (breast), soft agar growth, incubation time 11 days, read-out: IC50)	IC50 (A549 cells [1]; 192 h, A549 (lung), soft agar growth, incubation time 8 days, read-out: IC50)	IC50 (HCT116 cells; HCT116 (colon), soft agar growth, incubation time 8 days, read-out: IC50)	Structure (SMILES)	Tumor volume (mean) (MDA-MB-231 cells; [6])	Tumor volume (mean) (MDA-MB-231 cells; [7])	Tumor volume (mean) (MDA-MB-231 cells; [8])	Tumor volume (mean) (HCT-116 cells; [9])	Tumor volume (mean) (HCT-116 cells; [10])	Tumor volume (mean) (HCT-116 cells; [11])	Tumor growth on preventive application [2]	average oral bioavailability [3]	brain tumor growth (brain tumors)	selectivity of NK1 receptors compared to other enzyme transporter, ion channels (NK1 receptors)	water solubility [4]	Tumor volume (mean) (A549 cells [5]; [12])	Tumor volume (mean) (A549 cells [5]; [13])	Tumor volume (mean) (A549 cells [5]; [14])	IC50 (MDA-MB231 cells)	IC50 (A549 cells [1]; A549, 192 h)	IC50 (HCT116 cells)
17 µM	3600 nM	3.4 µM	C[C@@H](O[C@H]1OCCN(Cc2nc(=O)[nH][nH]2)[C@H]1c1ccc(F)cc1)c1cc(C(F)(F)F)cc(C(F)(F)F)c1 [Aprepitant]	<20 mm^3	<20 mm^3	<20 mm^3	<20 mm^3	<20 mm^3	<20 mm^3	reduced growth of triple negative tumor cells	60-65%	reduce brain tumor growth	at least 3000 times	virtually water-insoluble	<20 mm^3	<20 mm^3	<20 mm^3	–	–	–
–	–	–	C[C@@H](O[C@H]1OCCN(Cc2nc(O)n(P(=O)(O)O)n2)[C@H]1c1ccc(F)cc1)c1cc(C(F)(F)F)cc(C(F)(F)F)c1 [Fosaprepitant]	<20 mm^3	<20 mm^3	<20 mm^3	<20 mm^3	<20 mm^3	<20 mm^3	reduced growth of triple negative tumor cells	–	–	–	water-soluble	<20 mm^3	<20 mm^3	<20 mm^3	36 µM	1700 nM	3 µM

Reference: patent US20160324881A1, “Neurokinin-1 Receptor Antagonists For Use In A Method Of Prevention Of Cancer” (priority 2013, published 2016)
